Assay results as given in patent US9688624B2, “DP2 antagonist and uses thereof” (Brickell Biotech, Inc., priority 2010, dated 2017).
Counter-ions that a name gives are not always drawn. Like-named read-outs stand apart in the source and are kept apart here.

Assays:
DP2 receptor = DP2 receptor (Homo sapiens (Human), UniProt Q9Y5Y4); test: In vitro DP2/CRTH2 radioligand ([3H]PGD2) membrane binding assay
Procedure: Example 15: In Vitro DP2/CRTH2 Binding Assay
The ability of Compound 1 to bind to the human DP2 receptor was assessed via a radioligand binding assay using [^3H]PGD2. HEK293 cells stably expressing recombinant human DP2 are resuspended in 10 mM Hepes, 7.4 containing 1 mM DTT, lysed and centrifuged at 75,000×g to pellet the membranes. The membranes are resuspended in 10 mM Hepes, 7.4 containing 1 mM DTT and 10% glycerol to approximately 5 mg protein/ml. […] The reactions are terminated by rapid filtration through Whatman GF/C glass fibre filter plates. The filter plates were pre-soaked in 0.33% polythylenimine for 30 minutes at room temperature then washed in Wash Buffer (50 mM Hepes, 0.5 M NaCl pH 7.4) prior to harvesting. After harvesting, the filter plates are washed 3 times with 1 ml cold Wash Buffer then dried. Scintillant is then added to the plates and the radioactivity retained on the filters is determined on a Packard TopCount (Perkin Elmer). Specific binding is determined as total radioactive binding minus non-specific binding in the presence of 10 μM PGD2. IC50s were determined using GraphPad prism analysis of drug titration curves. Mouse, rat and guinea pig DP2 receptors were also investigated.
The binding potency of Compound 1 is only slightly shifted in the presence of species-specific serum albumin.

[1] = target: recombinant human CRTH2 receptor (Homo sapiens (Human), UniProt Q9Y5Y4); test: In vitro membrane GTPγS binding assay; assay type: biochemical; details: average; 80 nM PGD2, 0.2% human serum albumin
Procedure: Example 16: In Vitro GTPγS Binding Assay
The ability of Compound 1 to inhibit binding of GTP to DP2 is assessed via a membrane GTPγS assay. CHO cells stably expressing the recombinant human CRTH2 receptor are resuspended in 10 mM Hepes, 7.4 containing 1 mM DTT, lysed and centrifuged at 75,000×g to pellet the membranes. The membranes are resuspended in 10 mM Hepes, 7.4 containing 1 mM DTT and 10% glycerol. Membranes (˜12.5 μg per well) are incubated in 96-well plates with 0.05 nM [^35S]-GTPγS, 80 nM PGD2, 5 μM GDP, and Compound 1 in Assay Buffer (50 mM Hepes, pH 7.4, 100 mM NaCl, 5 mM MgCl2 and 0.2% human serum albumin) for 60 minutes at 30° C. The reactions are terminated by rapid filtration through Whatman GF/B glass fibre filter plates. The filter plates are washed 3 times with 1 ml cold Assay Buffer and dried. Scintillant is then added to the plates and the radioactivity retained on the filters is determined on a Packard TopCount (Perkin Elmer). Specific binding is determined as total radioactive binding minus non-specific binding in the […] of the ligand (80 nM PGD2). IC50s were determined using Graphpad prism analysis of drug titration curves.

CYP2C19 = CYP2C19 (Homo sapiens (Human), UniProt P33261); test: Extracellular cytochrome P450 inhibition (microsomes); details: IC50 (μM), 2C19, mephenytoin 4′-hydroxylation
[2] = Phase I single ascending dose study in humans, pharmacokinetics; assay type: in vivo, human; details: for half-life / AUC(0-inf) / AUC(0-t) / Cmax / Tmax / Vd/F: human, plasma; for Vd/F: read-out: Vz/F
Text: Example 22: Phase I Study in Humans
This is a phase 1, Single-Center, Double-Blind Study of Compound 2 in healthy volunteers.
To assess: (1) the safety and tolerability of single and multiple doses of Compound 2 following oral administration; and (2) the pharmacokinetics (PK) of Compound 2 after single and multiple doses; and (3) the effects of the pharmacodynamic (PD) responses in healthy subjects to Compound 2 as measured by a PGD2-induced eosinophil shape change assay (ESC).
The Single Ascending Dose (SAD) study will include 6 cohorts with 8 subjects each, 6 receiving the active treatment and 2 receiving the placebo. The SAD study will explore doses of 5, 15, 50, 150, 300 and 500 mg/day. Compound 2 (Pattern 1) is administered as API in a Capsule, prepared on site at the clinical pharmacy (see Example 10). Safety monitoring will include: a “how do you feel” (HDYF) question, adverse events reporting, physical examinations, vital signs, ECG's, and a biological assessment (clinical chemistry, hematology and urinalysis). The decision to escalate to the next dose level will be based on the results of medical monitoring, and a blinded interim analysis of pharmacokinetic parameters (AUC, Cmax) and pharmacodynamic responses. Doses may be adjusted based on the occurrence of adverse events. Subjects will be followed on site for 72 hours after dose administration.
The plasma concentrations of Compound 1 are determined by LC-MS/MS, giving a detection limit of 0.25 ng*mL^−1.
Pharmacokinetic measurements of Compound 2 includes measurement of the protonated form (Compound 1).

[3] = single oral 5 mg capsule, healthy humans, mean
[4] = single oral 15 mg capsule, healthy humans, mean
[5] = single oral 50 mg capsule, healthy humans, mean
[6] = single oral 150 mg capsule, healthy humans, mean
[7] = single oral 300 mg capsule, healthy humans, mean
[8] = single oral 500 mg capsule, healthy humans, mean

Chain of DP2 receptor (Q9Y5Y4 whole entry): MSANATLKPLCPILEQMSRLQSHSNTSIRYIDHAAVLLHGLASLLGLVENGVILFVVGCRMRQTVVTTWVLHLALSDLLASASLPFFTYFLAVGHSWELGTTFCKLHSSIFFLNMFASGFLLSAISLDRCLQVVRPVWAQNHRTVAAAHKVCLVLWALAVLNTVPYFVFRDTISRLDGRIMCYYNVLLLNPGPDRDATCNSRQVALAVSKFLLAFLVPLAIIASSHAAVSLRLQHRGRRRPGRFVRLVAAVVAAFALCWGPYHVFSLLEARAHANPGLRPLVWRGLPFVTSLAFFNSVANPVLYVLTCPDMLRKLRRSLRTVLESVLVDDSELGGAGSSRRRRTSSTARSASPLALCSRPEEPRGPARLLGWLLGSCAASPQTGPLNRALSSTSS
Chain of CYP2C19 (P33261 whole entry): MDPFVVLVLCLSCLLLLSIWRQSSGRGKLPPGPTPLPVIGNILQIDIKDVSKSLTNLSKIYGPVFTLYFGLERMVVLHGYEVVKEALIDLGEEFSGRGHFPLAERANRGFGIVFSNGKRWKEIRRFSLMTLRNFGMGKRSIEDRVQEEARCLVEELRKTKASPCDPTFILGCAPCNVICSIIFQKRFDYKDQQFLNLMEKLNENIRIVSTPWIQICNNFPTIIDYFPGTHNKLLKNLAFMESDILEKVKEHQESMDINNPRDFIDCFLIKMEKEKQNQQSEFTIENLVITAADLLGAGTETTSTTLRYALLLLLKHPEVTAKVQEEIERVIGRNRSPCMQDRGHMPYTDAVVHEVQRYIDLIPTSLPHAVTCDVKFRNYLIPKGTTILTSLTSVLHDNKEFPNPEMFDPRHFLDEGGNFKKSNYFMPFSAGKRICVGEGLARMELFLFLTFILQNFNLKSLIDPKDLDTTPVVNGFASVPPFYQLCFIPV
Chain of recombinant human CRTH2 receptor (Q9Y5Y4 whole entry): as the sequence (Q9Y5Y4 whole entry) above

COc1ccc(CC(=O)O)cc1Oc1ccc(NC(=O)C(C)(C)C)cc1CSC(C)(C)C [Compound 1, 2-(3-(2-((tert-butylthio)methyl)-4-(2,2-dimethyl-propionylamino)phenoxy)-4-methoxyphenyl)acetic acid]
IC50 (DP2 receptor; average, 0.2% species-specific albumin, read-out: IC50, radioligand membrane binding on human DP2): 0.0197 µM | IC50 (DP2 receptor; average, without serum albumin, read-out: IC50, inhibition of radiolabeled PGD2 binding to human DP2): 0.0052 µM | IC50 (DP2 receptor; in the presence of 0.5% serum albumin, read-out: IC50, binding to DP2): 0.0197 µM | IC50 [1]: 0.0028 µM

COc1ccc(CC(=O)O)cc1Oc1ccc(NC(=O)C(C)(C)C)cc1CSC(C)(C)C [Compound 2, 2-(3-(2-((tert-butylthio)methyl)-4-(2,2-dimethyl-propionylamino)phenoxy)-4-methoxyphenyl)acetic acid, sodium salt]
IC50 (CYP2C19): > 50 µM | half-life ([2]; oral, humans, 150 and 500 mg dose, read-out: long elim. t1/2): ≤ 18 h | half-life ([2]; oral, humans, SAD study, read-out: half life, increases with dose): 1.2 to 7 h | AUC(0-inf) [2, 3]: 6.2 ng·h/mL | AUC(0-t) [2, 3]: 4.85 ng·h/mL | Cmax [2, 3]: 2.69 ng/mL | Tmax [2, 3]: 0.542 h | Vd/F [2, 3]: 1470 L | half-life ([2]; single oral 5 mg capsule, healthy humans, mean, read-out: t1/2 (converted)): 1.22 h | AUC(0-inf) [2, 4]: 17.5 ng·h/mL | AUC(0-t) [2, 4]: 17 ng·h/mL | Cmax [2, 4]: 8.31 ng/mL | Tmax [2, 4]: 0.625 h | Vd/F [2, 4]: 1760 L | half-life ([2]; single oral 15 mg capsule, healthy humans, mean, read-out: t1/2 (converted)): 1.23 h | Cmax [2, 5]: 93.4 ng/mL | Tmax [2, 5]: 1.2 h | Vd/F [2, 5]: 1500 L | half-life ([2]; single oral 50 mg capsule, healthy humans, mean, read-out: t1/2 (converted)): 1.49 h | AUC(0-inf) [2, 6]: 3460 ng·h/mL | AUC(0-t) [2, 6]: 3450 ng·h/mL | Cmax [2, 6]: 4630 ng/mL | Tmax [2, 6]: 0.542 h | Vd/F [2, 6]: 1410 L | half-life ([2]; single oral 150 mg capsule, healthy humans, mean, read-out: t1/2 (converted)): 7.86 h | AUC(0-inf) [2, 7]: 6980 ng·h/mL | AUC(0-t) [2, 7]: 6970 ng·h/mL | Cmax [2, 7]: 6690 ng/mL | Tmax [2, 7]: 0.92 h | Vd/F [2, 7]: 351 L | half-life ([2]; single oral 300 mg capsule, healthy humans, mean, read-out: t1/2 (converted)): 6.32 h | AUC(0-inf) [2, 8]: 26000 ng·h/mL | AUC(0-t) [2, 8]: 26000 ng·h/mL | Cmax [2, 8]: 25700 ng/mL | Tmax [2, 8]: 0.583 h | Vd/F [2, 8]: 501 L | half-life ([2]; single oral 500 mg capsule, healthy humans, mean, read-out: t1/2 (converted)): 14.1 h | CL/F [2, 3]: 886 L/h | λz [2, 3]: 0.598 h⁻¹ | CL/F [2, 4]: 982 L/h | λz [2, 4]: 0.574 h⁻¹ | CL/F [2, 5]: 643 L/h | λz [2, 5]: 0.485 h⁻¹ | CL/F [2, 6]: 161 L/h | λz [2, 6]: 0.130 h⁻¹ | CL/F [2, 7]: 53.4 L/h | λz [2, 7]: 0.19 h⁻¹ | CL/F [2, 8]: 21.8 L/h | λz [2, 8]: 0.0904 h⁻¹
